Key:
[1] = target: E. coli alkaline phosphatase (APase) (Escherichia coli, UniProt P00634); experiment: E. coli APase inactivation by EDTA (comparison enzyme); assay type: biochemical; details: read-out: EDTA concentration giving 50% inactivation of E. coli APase
[2] = test system: HK-47 alkaline phosphatase (APase) from Antarctic psychrophilic marine bacterium strain HK-47 (ATCC 39469)
Protocol: APase activity was routinely assayed at 25° C. for 30 min in 100 μl reaction mixture containing 2 mM p-nitrophenyl phosphate, 5 mM CaCl2, 0.1M CAPS-NaOH buffer pH 9.5. The reaction was stopped by adding 300 μl of 13% (W/V) EDTA-1N NaOH to the reaction mixture. Control mixtures were similarly prepared, except that 13% EDTA-1N NaOH was added before the enzyme activity was assayed. APase activity was measured as the difference in absorbance at 410 nm between samples and control. One unit of APase activity is expressed as 1 micromole of p-nitrophenol (pNp) liberated per minute at 25° C. under the assay conditions. Protein concentration was determined by the Bio-Rad protein assay kit. Bovine serum albumin (BSA) was used as the standard. Homogeneity of the APase was examined by polyacrylamide gel electrophoresis and Bio-Rad (Bio-Rad laboratories, Richmond, CA.) silver stain.

Chain of E. coli alkaline phosphatase (APase) (P00634 22-471): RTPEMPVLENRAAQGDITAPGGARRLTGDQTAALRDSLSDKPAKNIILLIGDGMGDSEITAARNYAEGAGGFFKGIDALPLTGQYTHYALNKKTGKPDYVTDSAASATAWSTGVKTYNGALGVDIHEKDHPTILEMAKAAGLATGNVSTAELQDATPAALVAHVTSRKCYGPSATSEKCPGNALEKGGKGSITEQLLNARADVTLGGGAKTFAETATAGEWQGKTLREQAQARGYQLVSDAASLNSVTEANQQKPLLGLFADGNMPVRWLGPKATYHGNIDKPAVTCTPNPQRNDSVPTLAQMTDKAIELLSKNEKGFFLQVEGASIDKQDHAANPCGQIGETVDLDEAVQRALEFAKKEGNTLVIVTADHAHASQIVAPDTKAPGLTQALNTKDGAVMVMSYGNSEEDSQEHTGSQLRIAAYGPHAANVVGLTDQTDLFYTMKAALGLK

For `O=C(O)CN(CCN(CC(=O)O)CC(=O)O)CC(=O)O` [EDTA], the IC50 [1] was 10 mM, the “inhibition of HK-47 APase activity” value ([2]; at 1 mM EDTA) was about 100% and the “sensitivity to EDTA of HK-47 APase relative to E. coli APase” value ([2]; ratio of the 50% inhibition concentrations, E. coli vs HK-47) was 100 fold. It also gave an IC50 ([2]; read-out: EDTA concentration inhibiting HK-47 APase activity 50%, HK-47 APase, 'as little as') of 0.1 mM.
